Consider one compound from article PMC4728427, “Mechanism of allosteric activation of TMEM16A/ANO1 channels by a commonly used chloride channel blocker” (British Journal of Pharmacology, 2016).

Molecules are shown by their SMILES.

The target of this test is T1, Mouse TMEM16A (Mus musculus, UniProt Q8BHY3).
T1 construct: expressed in transfected cells; host or cells: HEK-293T
T1 sequence (Q8BHY3 1-960): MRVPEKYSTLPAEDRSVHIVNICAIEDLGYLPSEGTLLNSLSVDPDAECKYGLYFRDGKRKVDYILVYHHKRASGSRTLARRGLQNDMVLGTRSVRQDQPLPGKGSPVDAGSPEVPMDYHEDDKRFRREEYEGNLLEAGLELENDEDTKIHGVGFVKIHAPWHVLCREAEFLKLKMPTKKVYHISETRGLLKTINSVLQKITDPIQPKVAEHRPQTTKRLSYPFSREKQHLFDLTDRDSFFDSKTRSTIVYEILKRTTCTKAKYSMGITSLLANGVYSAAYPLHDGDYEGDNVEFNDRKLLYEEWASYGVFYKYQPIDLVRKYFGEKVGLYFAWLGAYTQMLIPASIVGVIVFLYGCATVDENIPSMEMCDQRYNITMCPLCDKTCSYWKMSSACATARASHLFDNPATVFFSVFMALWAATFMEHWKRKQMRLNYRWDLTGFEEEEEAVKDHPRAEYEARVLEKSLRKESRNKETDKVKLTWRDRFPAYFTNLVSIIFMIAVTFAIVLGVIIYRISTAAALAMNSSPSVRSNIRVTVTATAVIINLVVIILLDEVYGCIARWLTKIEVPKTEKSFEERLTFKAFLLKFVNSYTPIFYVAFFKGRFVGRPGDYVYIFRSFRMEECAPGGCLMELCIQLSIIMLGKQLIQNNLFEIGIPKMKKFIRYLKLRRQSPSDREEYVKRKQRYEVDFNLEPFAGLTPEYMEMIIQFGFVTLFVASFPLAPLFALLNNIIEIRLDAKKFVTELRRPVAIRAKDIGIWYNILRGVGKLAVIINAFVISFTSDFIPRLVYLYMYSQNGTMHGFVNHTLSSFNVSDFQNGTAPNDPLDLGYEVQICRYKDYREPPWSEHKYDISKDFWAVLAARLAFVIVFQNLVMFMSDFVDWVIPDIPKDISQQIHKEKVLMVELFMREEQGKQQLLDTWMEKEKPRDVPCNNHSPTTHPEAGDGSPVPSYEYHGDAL
The test can be described thus: Whole-cell TMEM16A current in the absence of [Ca2+]i. It counts as cell-based. Conditions: 3000 μM extracellular A9C. On the procedure:
Current versus V m relationships were constructed by measuring currents in response to 1 s V m steps (test pulses) from −100 to +100 mV in 40 mV increments (unless stated otherwise) after a 1 s V m step to +70 mV (pre‐pulse). Pulses were elicited every 2 s from a holding V m of 0 mV. Steady‐state currents were measured at the end of the test pulses. As detailed in the Results, in the presence of 300 nM [Ca^2+]i and extracellular A9C, the test‐pulse currents reached a peak within the first ~50 ms of the test pulse. These peak currents were also measured and plotted against the V m of the test pulse. Current density was obtained by dividing the current amplitude for the cell capacitance.
The gating of TMEM16A channels is modulated by changes in [Ca^2+]i and V m. To study the effect of A9C on the intrinsic V m‐dependence of the channel, extracellular A9C (3000 μM) was applied during whole‐cell patch‐clamp in the absence of [Ca^2+]i (Figure 9). The stimulation protocol was similar to that used in Figure 1. However, because TMEM16A current in the absence of [Ca^2+]i are evident at V m greater than ~100 mV (Xiao et al., 2011), test pulses were elicited up to a value of +140 mV. Consistent with previous studies (Xiao et al., 2011), TMEM16A current in the absence of [Ca^2+]i appeared almost instantaneously in response to strong depolarizations (Figure 9). […]

As to `O=C(O)c1c2ccccc2cc2ccccc12` [A9C, Anthracene‐9‐carboxylic acid], the “tail currents at negative Vm” value is listed as “no large increase”. This compound yielded a TMEM16A current density (+140 mV, control 13.0 ± 4.0) of 7.3 ± 3.8 pA∙pF^−1.
